From patent publication US20110015119A1, “NOVEL SEMI-SYNTHETIC GLYCOPEPTIDES AS ANTIBACTERIAL AGENTS” (LEAD THERAPEUTICS, INC., priority 2009, published 2011) come the findings set out here.

A word on the MIC: it is the smallest concentration in the dilution series that meets the test's criterion for growth inhibition.

Common to all, as to type: cell-based
Test [1] concerns Staphylococcus aureus 100 (ATCC 29213). Description: MIC by broth microdilution, SA 100. The procedure, abridged: (§1)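 Broth microdilution in Mueller-Hinton broth per NCCLS/CLSI procedure, with automated serial dilution and liquid transfer. Strains are clinical isolates sensitive or resistant to natural glycopeptides.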
(In general: In broth dilution the organism is exposed to a series of concentrations in liquid medium.)

Test [2] relates to Staphylococcus aureus 757 (MRSA). Kind of test: MIC by broth microdilution, SA 757. To be noted: read-out: MIC SA 757. The procedure, abridged:
as §1

Test [3] deals with Staphylococcus aureus 2012 (VISA). Kind of test: MIC by broth microdilution, SA 2012. To be noted: class symbols. The procedure, abridged:
as §1

Test [4] has as its system Staphylococcus epidermidis 835. Description: MIC by broth microdilution, SE 835. The procedure, abridged:
as §1

The test system of test [5] is Staphylococcus epidermidis 831 (MRSE). Kind of test: MIC by broth microdilution, SE 831. The following applies: read-out: MIC SE 831. The procedure, abridged:
as §1

In test [6] the test system is Enterococcus faecalis 101 (ATCC 29212). Description: MIC by broth microdilution, EFc 101. The following applies: class symbols. The procedure, abridged:
as §1

For test [7], the system named is Enterococcus faecalis 848 (VRE, Van A). Kind of test: MIC by broth microdilution, EFc 848. The following applies: class symbols. Put shortly:
as §1

In the next test the test system is Enterococcus faecium 800. Description: MIC by broth microdilution, EFcm 800. The procedure, abridged: as §1
The test system of test [8] is Enterococcus faecium 752 (VRE, Van A). Description: MIC by broth microdilution, EFcm 752. To be noted: class symbols. The procedure, abridged: as §1
Test [9] has as its system Streptococcus pneumoniae 1195 (ATCC 49619). Description: MIC by broth microdilution, SPNE 1195. The procedure, abridged: as §1
The test system of test [10] is Streptococcus pyogenes 712. Description: MIC by broth microdilution, SPY 712. Put shortly:
as §1

Setting [11] is: ATCC29213, Staphylococcus aureus 100 (ATCC 29213), class symbols, read-out: MIC SA 100.
[12] abbreviates: Staphylococcus aureus 757 (MRSA), class symbols.
The mark [13] stands for this setting: Staphylococcus aureus 2012 (VISA), read-out: MIC SA 2012.
The mark [14] stands for this setting: Staphylococcus epidermidis 835, class symbols, read-out: MIC SE 835.
Setting [15] is: Staphylococcus epidermidis 831 (MRSE), class symbols.
Setting [16] is: ATCC29212, Enterococcus faecalis 101 (ATCC 29212), read-out: MIC E FC 101.
Setting [17] is: Enterococcus faecalis 848 (VRE, Van A), read-out: MIC E FC 848.
[18] abbreviates: Enterococcus faecium 800, class symbols, read-out: MIC E FCM 800.
[19] abbreviates: Enterococcus faecium 752 (VRE, Van A), read-out: MIC E FCM 752.
Where [20] appears, read: ATCC49619, Streptococcus pneumoniae 1195 (ATCC 49619), class symbols, read-out: MIC S PNE 1195.
Where [21] appears, read: Streptococcus pyogenes 712, class symbols, read-out: MIC S PYO 712.

In brackets after ≈: the same amount, converted by molar mass. Read-outs that look alike come from different tables or passages of the source. Bounds are passed on as bounds.

For `CNCCCOc1ccc(NC(=O)Oc2cc(O)c3c(c2)[C@@H](C(=O)NC2C4CC5CC(C4)CC2C5)NC(=O)[C@H]2NC(=O)[C@H](NC(=O)[C@@H]4NC(=O)[C@H](CC(N)=O)NC(=O)[C@H](NC(=O)[C@@H](CC(C)C)NC)[C@H](O)c5ccc(c(Cl)c5)Oc5cc4cc(c5O[C@@H]4O[C@H](CO)[C@@H](O)[C@H](O)[C@H]4O[C@H]4C[C@](C)(N)[C@H](O)[C@H](C)O4)Oc4ccc(cc4Cl)[C@H]2O)c2ccc(O)c-3c2)cc1` (stereo partly drawn) [Compound 333], the minimum inhibitory concentration (MIC) in test [1] (Staphylococcus aureus, ATCC29213, read-out: MIC SA 100) was 4 to 8 µg/mL (≈ 2.24 to 4.47 µM); in test [2] (Staphylococcus aureus, MRSA), 4 to 8 µg/mL (≈ 2.24 to 4.47 µM); in [3] (Staphylococcus aureus, VISA, read-out: MIC SA 2012, Staphylococcus aureus 2012 (VISA)), above 16 µg/mL; in [4] (Staphylococcus epidermidis, 835, read-out: MIC SE 835) it was 8 to 16 µg/mL (≈ 4.47 to 8.94 µM); in [5] (Staphylococcus epidermidis, MRSE), 8 to 16 µg/mL (≈ 4.47 to 8.94 µM); in test [6] (Enterococcus faecalis, ATCC29212, read-out: MIC E FC 101, Enterococcus faecalis 101 (ATCC 29212)), 4 to 8 µg/mL (≈ 2.24 to 4.47 µM). For the same compound, the minimum inhibitory concentration (MIC) is above 16 µg/mL in [7] (Enterococcus faecalis, VRE, read-out: MIC E FC 848, Enterococcus faecalis 848 (VRE, Van A)); 2 to 4 µg/mL (≈ 1.12 to 2.24 µM) with Enterococcus faecium 800 (Enterococcus faecium, 800, read-out: MIC E FCM 800); above 16 µg/mL in test [8] (Enterococcus faecium, VRE, read-out: MIC E FCM 752, Enterococcus faecium 752 (VRE, Van A)); 2 to 4 µg/mL (≈ 1.12 to 2.24 µM) in test [9] (Streptococcus pneumoniae, ATCC49619, read-out: MIC S PNE 1195); 1 to 2 µg/mL (≈ 0.559 to 1.12 µM) in [10] (Streptococcus pyogenes, 712, read-out: MIC S PYO 712).
Consider `CCCCCCc1ccc(NC(=O)NCCCCCCNCc2c(O)cc3c(c2O)-c2cc(ccc2O)[C@H]2NC(=O)[C@@H]4NC(=O)[C@H](CC(N)=O)NC(=O)[C@H](NC(=O)[C@@H](CC(C)C)NC)[C@H](O)c5ccc(c(Cl)c5)Oc5cc4cc(c5O[C@@H]4O[C@H](CO)[C@@H](O)[C@H](O)[C@H]4O[C@H]4C[C@](C)(NC(=O)NC5CC5)[C@H](O)[C@H](C)O4)Oc4ccc(cc4Cl)[C@@H](O)[C@H](NC2=O)C(=O)N[C@@H]3C(=O)O)cc1` (atropisomer, axis not shown) [Compound 368], for which the minimum inhibitory concentration (MIC) is 0.01 to 0.5 µg/mL (≈ 0.00537 to 0.268 µM) in test [1] (setting [11]); 0.01 to 0.5 µg/mL (≈ 0.00537 to 0.268 µM) in [2] (setting [12]); 0.5 to 1 µg/mL (≈ 0.268 to 0.537 µM) in test [3] (setting [13]); 0.01 to 0.5 µg/mL (≈ 0.00537 to 0.268 µM) in test [4] (setting [14]); 0.01 to 0.5 µg/mL (≈ 0.00537 to 0.268 µM) in test [5] (setting [15]); 0.01 to 0.5 µg/mL (≈ 0.00537 to 0.268 µM) in test [6] (setting [16]). Moreover, the minimal inhibitory concentration (MIC) in [7] (setting [17]) was above 16 µg/mL; with Enterococcus faecium 800 (setting [18]) it was 0.01 to 0.5 µg/mL (≈ 0.00537 to 0.268 µM); in test [8] (setting [19]), 2 to 4 µg/mL (≈ 1.07 to 2.15 µM); in test [9] (setting [20]) it was 0.01 to 0.5 µg/mL (≈ 0.00537 to 0.268 µM); in test [10] (setting [21]), 0.01 to 0.5 µg/mL (≈ 0.00537 to 0.268 µM).
As for `CCCCCCCCc1ccc(S(=O)(=O)NCCCCCCNCc2c(O)cc3c(c2O)-c2cc(ccc2O)[C@H]2NC(=O)[C@@H]4NC(=O)[C@H](CC(N)=O)NC(=O)[C@H](NC(=O)[C@@H](CC(C)C)NC)[C@H](O)c5ccc(c(Cl)c5)Oc5cc4cc(c5O[C@@H]4O[C@H](CO)[C@@H](O)[C@H](O)[C@H]4O[C@H]4C[C@](C)(NC(=O)NC5CC5)[C@H](O)[C@H](C)O4)Oc4ccc(cc4Cl)[C@@H](O)[C@H](NC2=O)C(=O)N[C@@H]3C(=O)O)cc1` (atropisomer, axis not shown) [Compound 366], the minimal inhibitory concentration (MIC) in [1] (setting [11]), in [2] (setting [12]), in test [3] (setting [13]), in [4] (setting [14]), in test [5] (setting [15]) and in [6] (setting [16]) was 0.01 to 0.5 µg/mL (≈ 0.00523 to 0.261 µM) in each case. Further, the minimal inhibitory concentration (MIC) in [7] (setting [17]) lay within 8 to 16 µg/mL (≈ 4.18 to 8.36 µM); in the test on Enterococcus faecium 800 (setting [18]) it was 0.01 to 0.5 µg/mL (≈ 0.00523 to 0.261 µM); in test [8] (setting [19]), 2 to 4 µg/mL (≈ 1.05 to 2.09 µM); in test [9] (setting [20]), 0.01 to 0.5 µg/mL (≈ 0.00523 to 0.261 µM); in test [10] (setting [21]) it was 0.01 to 0.5 µg/mL (≈ 0.00523 to 0.261 µM).
